Measurements published in patent US20260158149A1, “GLYCOSYLATED PRODRUGS” (UNIVERSITEIT LEIDEN, priority 2021, published 2026).

Experiments:
human GR = biological target: T1, human GR (Homo sapiens, UniProt P04150); experiment: PolarScreen Glucocorticoid Receptor Competitor Assay
T1 sequence (P04150 1-777): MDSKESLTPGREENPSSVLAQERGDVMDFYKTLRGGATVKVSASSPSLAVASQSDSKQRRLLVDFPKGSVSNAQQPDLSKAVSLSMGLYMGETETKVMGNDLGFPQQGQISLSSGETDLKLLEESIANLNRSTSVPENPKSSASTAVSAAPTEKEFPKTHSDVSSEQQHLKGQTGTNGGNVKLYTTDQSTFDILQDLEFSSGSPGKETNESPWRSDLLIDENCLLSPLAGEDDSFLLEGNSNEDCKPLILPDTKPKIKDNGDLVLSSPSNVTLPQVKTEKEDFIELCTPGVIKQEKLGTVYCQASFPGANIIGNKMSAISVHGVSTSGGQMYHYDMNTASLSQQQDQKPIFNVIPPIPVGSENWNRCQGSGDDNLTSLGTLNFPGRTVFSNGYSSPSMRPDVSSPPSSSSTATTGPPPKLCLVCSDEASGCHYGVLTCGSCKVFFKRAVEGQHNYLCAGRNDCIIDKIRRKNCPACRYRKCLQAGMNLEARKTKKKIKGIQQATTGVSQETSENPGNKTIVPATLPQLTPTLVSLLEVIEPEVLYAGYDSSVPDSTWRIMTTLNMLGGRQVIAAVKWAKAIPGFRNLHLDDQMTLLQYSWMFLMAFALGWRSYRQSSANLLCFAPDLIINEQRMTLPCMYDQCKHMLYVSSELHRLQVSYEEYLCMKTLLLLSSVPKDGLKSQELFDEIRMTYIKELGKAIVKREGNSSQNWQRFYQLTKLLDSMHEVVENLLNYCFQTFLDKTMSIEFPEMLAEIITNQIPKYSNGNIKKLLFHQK

[1] = test system: il1b, il6, mmp9, mmp13, il8 mRNA; experiment: qPCR of pro-inflammatory genes after tail wounding; type: in vivo, Zebrafish (Danio rerio)
Description: For the tail fin amputation experiments, 3 days post fertilization (dpf) larvae from the Tg(mpx:GFP^i114/mpeg1:mCherry^umsF001) line were anesthetized in 0.02% buffered aminobenzoic acid ethyl ester (tricaine) in egg water and placed on a 2% agarose-coated petri dish. The tails were partially amputated with a 1 mm sapphire blade (World Precision Instruments) under a Leica M165C stereomicroscope (Leica Microsystems, Wetzlar, Germany). Chemical treatment (or 0.1% DMSO as vehicle treatment) was started at 2 h before the amputation (pretreatment) and was continued for 4 h after the tail fin amputation (20 larvae per group, unless indicated otherwise), at which time point the larvae were fixed in 4% paraformaldehyde (PFA) overnight at 4° C. and stored at 4° C. until further examination. In some experiments, a 24 h treatment with miglustat, ME656 or MZ31 was started at 2 dpf, and these treatments were continued during the pretreatment and treatment with the other chemicals. For imaging of larvae from the Tg(mpx:GFP^i114/mpeg1:mCherry^umsF001) line, a LeicaMZ16FA fluorescence stereomicroscope with LAS 3.7 software was used. Neutrophils were detected by GFP fluorescence and macrophages by mCherry fluorescence. The neutrophil numbers were determined by blinded manual counting in a pre-determined area. When larvae from gba2^−/− or gr^s357mutant lines were used, neutrophil labeling was performed with the TSA fluorescein detection kit (PerkinElmer) for specific staining of Myeloperoxidase (Mpx)-positive cells, following the manufacturer's instructions.
(§1) For experiments in zebrafish, gene expression was measured using 3 dpf embryos. Groups of 15 larvae were collected in TRIzol reagent (Invitrogen) and mRNA was isolated using the miRNeasy mini kit (Qiagen), according to the manufacturer's instructions. For experiments in HeLa cells, samples were collected from a single well from 6 well plates (80% confluent) in TRIzol reagent and mRNA was isolated using the RNeasy mini kit. Zebrafish and cells samples were treated with DNAse utilizing the DNA-Free™ kit (Ambion). The cDNA synthesis was performed using iScript cDNA synthesis kit (Bio-Rad) using 1 μg of RNA per sample. For qPCR, 10 μM of forward and 10 μM of reverse primer, 12.5 μL of iQ SYBR Green Supermix (Bio-Rad), and 2 μL of cDNA were added to the qPCR reaction mixture. […] The qPCR reactions were performed on a MyiQ-single-color real-time PCR detection system (Bio-Rad) with initial denaturation for 3 min at 95° C. and 40 cycles of 15 s at 95.5° C., 15 s at 60° C., and 30 s at 72° C. Cycle threshold values (Ct values, i.e. the cycle numbers at which a threshold value of the fluorescence intensity was reached) were determined for each sample. The gene expression level for each sample was normalized using the expression of ppial (peptidylprolyl isomerase Ab (cyclophilin A)) for zebrafish samples, and 18S rRNA for human cells. The fold change per sample (compared to the respective control group) was calculated using the ΔΔCt method.

[2] = test system: Gr target genes fkbp5, pck1 and nfkbiaa; experiment: qPCR of Gr target genes fkbp5, pck1, nfkbiaa; type: in vivo, Zebrafish (Danio rerio)
Description: as §1

[3] = Whole-body cortisol measurement using ELISA
Description: Zebrafish embryos at 2 hpf received a chemical treatment, as indicated, with daily refreshment of the solutions, until 96 hpf. Then, the treatments were stopped and embryos were incubated in egg water until 5 dpf to avoid cross-reactivity with the compounds of the cortisol antibody used in the ELISA. Then, the treatments were stopped and replaced with egg water. At 5 dpf, the larvae were collected in an Eppendorf tube and 100 μL of ice-cold phosphate-buffered saline (PBS) was added. The larvae were homogenized using a BulletBlender® for 3 min at 8,000 rpm. Ethyl acetate was added to the homogenate and the supernatant was gathered and vaporized. A volume of 150 μl of 0.2% Bovine serum albumin (Sigma Aldrich) dissolved in phosphate-buffered saline (PBS) was added to the samples and frozen. Whole-body cortisol of the zebrafish larvae was determined by ELISA (Demeditec Diagnostics GmbH, Kiel-Wellsee, Germany), following the manufacturer's instructions. In each experiment, three biological replicates were used for each treatment group, and the colorimetric assay was performed using technical duplicates.

## C[C@]12C=CC(=O)C=C1CC[C@@H]1[C@@H]2[C@@H](O)C[C@@]2(C)[C@H]1CC[C@]2(O)C(=O)CO[C@@H]1O[C@H](CO[C@@H]2O[C@H](CO)[C@@H](O)[C@H](O)[C@H]2O)[C@@H](O)[C@H](O)[C@H]1O [GbPdn, 21-O-Gentobiose-Prednisolone]
Human GR
  decrease in the binding affinity relative to Pdn: ~1400 fold
[1]
  expression of the pro-inflammatory genes il1b, il6 and il8: suppression of the expression
[2]
  expression of Gr target genes fkbp5, pck1 and nfkbiaa: lack of effect
[3]; 5 dpf larvae treated from 2 hpf, non-wounded
  whole body cortisol level: did not affect the glucose or cortisol concentration
[3]; 5 dpf larvae, wounded at 2 dpf
  whole body cortisol level under wounding conditions: decrease in cortisol concentration
